Laboratory results: EP4778516A1, “CALCIFICATION ENHANCER FOR OSTEOBLAST MC3T3-E1 CELL” (Watanabe Oyster Laboratory Co., Ltd., priority 2023, dated 2025)
Where two headings read alike, the source gives them in different places.

Key:
[1] = tested on: bone-metastatic prostate cancer cells; conditions: earlier demonstration by the present inventors; cited from earlier work
MC3T3-E1 cells [2] = assay: Cell proliferation assay (cell counting); assay type: cell-based, mouse
Protocol: To examine progression of cell proliferation, MC3T3-E1 cells (1×10^5/ml medium per well) were cultured using a 24-well plate in a-MEM supplemented with 10% FBS and 1% P/S at 37°C in a water-saturated atmosphere containing 5% CO2 and 95% air. The cells were cultured for 1, 2, 3, 4, or 5 days in the presence of a vehicle (1% ethanol as final concentration) or DHMBA (10 mM). In another experiment, to evaluate the effects of increased concentrations of DHMBA on MC3T3-E1 cells, the cells (1×10^5/ml per well) were cultured using a 24-well plate in DMEM (containing 10% FBS and 1% P/S). The cells were cultured for 3 days in the presence of either a reagent vehicle (1% ethanol as final concentration) or DHMBA (0.1, 1, 10, 100, or 1000 mM).
To evaluate the effects of DHMBA on cell death of osteoblasts MC3T3-E1, the cells (1×10^5/ml medium per well in a 24-well plate) were cultured in a-MEM containing 10% FBS and 1% P/S. After culturing for 3 days until reaching subconfluence, either a reagent vehicle (1% ethanol as final concentration) or DHMBA (0.1, 1, 10, 100, or 1000 mM) was added, and the cells were further cultured for 48 hours. After culture, to count the number of cells attached to each well, a […] containing 0.05% trypsin and EDTA (0.1 ml per well) was added, and then the culture plates were incubated at 37°C for 2 minutes. Subsequently, a-MEM (0.9 ml) containing 10% FBS and 1% P/S was added, and the cells were detached and mixed by pipetting. The cell suspension (0.1 ml) was mixed with 0.1 ml of 0.5% trypan blue staining solution. By this staining, […]. Viable cells were counted under a microscope (Olympus MTV-3) using a hemocytometer (Sigma-Aldrich, St. Louis, MO) and a cell counter (H-102P, Line Seiki Co., Ltd., Tokyo, Japan), and the average of two counts was calculated. Cell numbers were expressed as the number per well.

MC3T3-E1 cells [3] = assay: Crosstalk (Transwell co-culture) between MC3T3-E1 cells and RAW264.7 cells; assay type: cell-based, mouse; conditions: DHMBA 1 or 10 mM
Protocol: To investigate crosstalk between osteoblast MC3T3-E1 cells and macrophage RAW264.7 cells, an assay was performed using Transwell chambers (Corning Inc., Life Sciences, catalog no. CLS3464-48EA, USA) equipped with a polycarbonate filter (pore size […], diameter 6.5 mm). MC3T3-E1 cells (1×10^5 cells per 1 ml medium) were added in a-MEM medium (1 ml) containing 10% FBS and 1% P/S in the lower chamber. RAW264.7 cells were suspended in DMEM containing 10% FBS and 1% P/S, and 0.5 ml of the suspension (5×10^4 cells/ml medium) was added to the upper chamber of each Transwell. RAW264.7 cells were incubated at 37°C for 1 hour under 5% CO2 and 95% air to allow attachment to the upper chamber. The plates equipped with the Transwell chambers were then placed in an incubator at 37°C under 5% CO2 and 95% air. To induce inflammatory conditions in RAW264.7 cells, LPS (100 ng/ml medium) was added to the upper chamber containing RAW264.7 cells. […] MC3T3-E1 cells attached to the dishes (wells) were counted as described in the section "Cell proliferation assay". […]
Thereafter, a Transwell chamber was placed in each culture well, and RAW264.7 cells were added to the upper chamber at 0.5 ml (5×10^4 cells/ml medium), in the presence or absence of LPS (100 ng/ml medium). […] Cells attached to the dishes (wells) were counted as described in the section "Cell proliferation assay".

NF-kB p65 = assay: Western blotting of cell lysates; assay type: cell-based, mouse; conditions: 3 days
Protocol: MC3T3-E1 cells (1×10^6 cells in 10 ml medium in a 100-mm dish) were cultured for 3 days in a-MEM containing 10% FBS and 1% P/S in the presence of a reagent vehicle (1% ethanol as final concentration), DHMBA (10 mM), TNF-a (10 ng/ml medium), or DHMBA (10 mM) in combination with TNF-a (10 ng/ml). After culture, the dishes were washed three times with cold PBS (10 ml), and adherent cells were removed from the dishes by scraping in Cell Lysis Buffer (Cell Signaling Technology, Inc., Danvers, MA, USA). Protein samples obtained from the cell lysates were loaded ([…] per lane) and separated by SDS-polyacrylamide gel electrophoresis (12% SDS-PAGE), as previously described. After electrophoresis, the membranes were incubated overnight at 4°C with primary antibodies (each diluted 1:1,000) against target proteins NF-kB p65 (catalog no. 3034, rabbit) and b-actin (catalog no. 3700, mouse). […] Protein bands were then detected using a chemiluminescent substrate (catalog no. 34577, Thermo Fisher Scientific Inc., Rockford, IL, USA) on X-ray film. A total of four films obtained from four independent experiments using separate membranes were scanned using an Epson Perfection 1660 Photo scanner, and band intensities were quantified using ImageJ2 software (National Institutes of Health, Bethesda, MD, USA).

[4] = cited from earlier work; for peroxyl radical scavenging activity relative to Trolox: greater than Trolox

## COc1c(O)cc(CO)cc1O [DHMBA, 3,5-dihydroxy-4-methoxybenzyl alcohol]
[1]
  metastatic activity of bone-metastatic prostate cancer cells: suppressive effects
  proliferation of bone-metastatic prostate cancer cells: suppressive effects
MC3T3-E1 cells [2]; DHMBA 10 mM, cultured 1, 2, 3, 4, or 5 days, vs vehicle (1% ethanol), Fig. 1A
  proliferation of MC3T3-E1 cells: no significant change
MC3T3-E1 cells [2]; DHMBA 0.1, 1, 10, or 100 mM, 3 days, Fig. 1B
  proliferation of MC3T3-E1 cells: not changed
MC3T3-E1 cells [2]; DHMBA 1000 mM (highest concentration tested), 3 days, Fig. 1B
  cell proliferation: significant decrease
MC3T3-E1 cells [2]; TNF-a 1 or 10 ng/ml plus DHMBA 1 or 10 mM, 3 days, Fig. 3A
  TNF-a-induced inhibition of cell proliferation: suppressed
MC3T3-E1 cells [3]; LPS 100 ng/ml in upper chamber, 3 days, Fig. 5C
  decrease of proliferation of MC3T3-E1 cells by co-culture with RAW264.7 cells: suppressed
MC3T3-E1 cells [3]; LPS 100 ng/ml, 48 hours, Fig. 5D
  enhancement of death of MC3T3-E1 cells by co-culture with RAW264.7 cells: prevented
NF-kB p65; DHMBA 10 mM, without TNF-a, Figs. 8A and 8B
  expression level of NF-kB p65 in MC3T3-E1 cells: reduced
NF-kB p65; TNF-a 10 ng/ml plus DHMBA 10 mM, Fig. 8A and 8B
  TNF-a-induced increase of the level of NF-kB p65: suppressed
[4]; compared with other known antioxidants such as resveratrol and ascorbic acid
  reaction with HOO(•): more rapidly
[4]; in aqueous media
  peroxyl radical scavenging activity relative to Trolox: four orders of magnitude
[4]; in lipid media
  peroxyl radical scavenging activity relative to Trolox: approximately 15 fold
